# Test results reported in patent US4369120A, “Refrigeration liquid with leak indicator and process of using same” (priority 1981, dated 1983).
# “Also recorded” adds a separate entry of the source.
# Legend:
# [1] = Sealed tube test of stability of dyes in refrigerant/refrigeration oil with metal coupons; format: physicochemical; conditions: for Stability, Mean Life: Table I, sealed tube data in R-12 at 350° F.; for stability as measured by the sealed tube test: text summary of Table I, 350° F.
# Procedure: By reference to Table I below it can be appreciated that such ortho substitution has a remarkably beneficial effect on the stability of the dyes in the accelerated sealed tube test used for evaluation. The first three dyes listed, embodying the principles of this invention, routinely withstand in excess of twenty days in the sealed tube test at 350° F. (176.7° C.), equivalent to many years of normal use in a refrigeration system.
# The sealed tube test serves as a method of evaluating in an accelerated manner interactions of materials found in a refrigeration system.
# Glass tubes and all metal test coupons are scrupulously cleaned. Test refrigerants are distilled to minimize moisture contamination. Moisture is removed from the refrigeration test oil "Suniso" 3GS by subjecting the oil to a vacuum with slight stirring and heating. Ratios of refrigerant/refrigerant oil range from 1:1 to 1:2 by weight.
# Refrigerant oil and representative metal coupons of copper #10AWG wire, Swedish valve stock steel, and aluminum metal sheet are placed in a glass tube along with the subject test dye material (0.25-1.0% wt/wt) dissolved in the refrigerant oil. Like samples without the subject dye are analyzed as controls.
# The tube and its contents are chilled in a liquid nitrogen bath while the refrigerant is condensed into the tube via a calibrated manometer. The tube is sealed under a vacuum of at least 0.1 torr.
# Glass tubes and contents are subjected to uniform heating in a bored aluminum block placed in a temperature-programmed oven.
# The oven temperatures used vary according to the test refrigerant, as indicated:
# The test is run for one of the following time periods: 5, 14, 21, 30 or 60 days.
# The tube contents may be evaluated by several methods:
# of these methods, the visual examination is the most rapid and the only qualitative method. Any color change in the subject dye coloration is noted when compared to a control sample.
# The quantitative methods involve analysis for decomposition products of chloride as hydrochloric acid or organic products by gas chromatography, infrared spectroscopy, or mass spectroscopy. However, visual inspection and gas chromatography are widely used, and they were selected as standardization procedures for evaluation of sealed tube contents.
# R-12 is chemically one of the more reactive refrigerants; thus, short term tests with refrigeration liquids containing this refrigerant admixed with a mineral oil yield the most rapid results. R-22 and R-502 are also used but the decomposition products are more difficult to analyze by gas chromatography. Ultimately the test material must pass interactions involving any of these refrigerants. The visual method can be used empirically on a pass-fail basis. As verified experimentally, visual results are considered as valid as instrumental methods.
# [2] = Solubility of dyes in halocarbon refrigerants; format: physicochemical; conditions: for Refr. Sol. In R-12: Table I, refrigerant R-12
# Procedure: Solubilities of various dyes in various halocarbon refrigerants were also determined according to the following standardized procedure. […] The R-11 was allowed to vaporize, leaving a known amount of dye in the bottom portion of the test tube. The tube was then attached to a charging apparatus containing a supply of a given halocarbon refrigerant and various amounts of the refrigerant were charged into the tube while chilling the latter by immersion in liquid nitrogen. The tube containing the dye/refrigerant mixture was sealed under vacuum, allowed to reach room temperature (about 21° C.) and rotated for several hours. Visual inspection of the tube was made at several temperatures to note the degree of dissolution. The procedure was improved over previously used methods in that an exact predetermined amount of dye and refrigerant were made to interact, requiring fewer weighings. Finally, it became possible to use the same tube to check solubility at several different temperatures.
# [3] = Solubility of dyes in refrigeration oils; conditions: for Dye Solubility in refrigeration oil: room temperature (about 21° C.); for Oil Sol. In 3GS: Table I, Suniso 3GS refrigeration oil
# Procedure: Manufacturers of refrigeration equipment generally demand that any refrigeration liquid satisfactorily pass such a sealed tube test before they approve the liquid for use in their equipment. In addition, the solubility of the various dyes in oil and in refrigerant were determined.
# Solubility of various dyes in various refrigeration oils was carefully determined according to the following standardized procedure. An excess of the subject dye was added to a given weight (e.g., 100 g) of refrigerant oil. The mixture was stirred for one-half hour with mild heating, whereupon it was cooled to room temperature (about 21° C.) and transferred to a centrifuge tube. The mixture was centrifuged approximately 15 minutes at 1000 rpm. A sample of the supernatant liquid was decanted (1.00 g±0.01 g) and diluted to 100 ml volume with methylene chloride. Aliquot portions were taken and read against the principal absorption peaks by visible light spectroscopy. Wt/wt percentage concentrations were then calculated from proper standard curves.
# [4] = 400° F. (204.4° C.), reported in U.S. Pat. No. 3,770,640; cited from earlier work
SMILES,"Stability, Mean Life [1] [days]",stability as measured by the sealed tube test [1] [days],solubility in the halocarbon refrigerant (in words) [2],"Solubility in refrigerant ([2]; R-12, 21° C.)","Solubility in refrigerant ([2]; R-22, 21° C.)","Solubility in refrigerant ([2]; R-502, 21° C.)",Refr. Sol. In R-12 [2] [%],solubility in the refrigeration oil (in words) [3],Oil Sol. In 3GS [3] [%],also measured
"CCc1cccc(C)c1Nc1ccc(Nc2c(C)cccc2CC)c2c1C(=O)c1ccccc1C2=O [Dye No. 1-35, 1,4-bis(2-methyl-6-ethylanilino)anthraquinone]",26.2,> 20,sufficient solubility; also recorded: substantially greater solubility in the various refrigerants than the other dyes tested,0.2 %(wt/wt),0.4 %(wt/wt),0.1 %(wt/wt),0.2,relatively high solubility,4.8,"stability in the sealed tube test at 402° F. (in words) ([1]; 402° F. (205.5° C.), compared with 350° F.): virtually as stable at 402° F. (205.5° C.) as it is at 350° F. (176.7° C.); also recorded: excellent stability of dye No. 1-35 persists even at much higher test temperatures; Mean Life, Days at 350° F. ([1]; Sample C, purity 97%): 24.0 days; Mean Life, Days at 350° F. ([1]; Sample D, purity 95%): 24.0 days; Mean Life, Days at 350° F. ([1]; Sample E, purity 89%): 17.0 days; Mean Life, Days at 350° F. ([1]; Sample F, purity 65%): 5.0 days; Mean Life, Days at 350° F. ([1]; Samples A and B, purity 100% (by definition)): 26.2 days; Solubility in refrigerant ([2]; R-11, 21° C.): 0.2 %(wt/wt); Solubility in refrigerant ([2]; R-12, 0° C.): 0.2 %(wt/wt); Solubility in refrigerant ([2]; R-12, -20° C.): 0.2 %(wt/wt); Solubility in refrigerant ([2]; R-22, 0° C.): 0.4 %(wt/wt); Solubility in refrigerant ([2]; R-22, -20° C.): 0.4 %(wt/wt); Solubility in refrigerant ([2]; R-502, 0° C.): < 0.1 %(wt/wt); Solubility in refrigerant ([2]; R-502, -20° C.): < 0.1 %(wt/wt); Dye Solubility in refrigeration oil ([3]; DuPont Zephron 150 (alkyl benzene type)): 5.3 %(wt/wt); Dye Solubility in refrigeration oil ([3]; Suniso 3GS): 4.8 %(wt/wt); Dye Solubility in refrigeration oil ([3]; Suniso 4GS): 4.6 %(wt/wt); Dye Solubility in refrigeration oil ([3]; Suniso 5GS): 4.8 %(wt/wt); Dye Solubility in refrigeration oil ([3]; Texaco Cappella D): 4.8 %(wt/wt); Dye Solubility in refrigeration oil ([3]; Texaco Cappella E): 4.9 %(wt/wt); solubility in representative naphthenic and alkyl benzene refrigeration oils ([3]; summary of Table II): about 5%"
"CCc1cc(CC)c(Nc2ccc(Nc3c(CC)cc(CC)cc3CC)c3c2C(=O)c2ccccc2C3=O)c(CC)c1 [1,4-bis(2,4,6-triethylanilino)anthraquinone]",–,–,–,–,–,–,–,–,–,stability in the sealed tube test at 400° F. (in words) [4]: very unstable; also recorded: so poor as to make this dye commercially unacceptable
"Cc1cccc(C)c1Nc1ccc(Nc2c(C)cccc2C)c2c1C(=O)c1ccccc1C2=O [Dye No. 2-31, 1,4-Bis(2,6-dimethylanilino)-anthraquinone]",22.4,> 20,sufficient solubility,< 0.02 %(wt/wt),0.04 %(wt/wt),< 0.02 %(wt/wt),< 0.1,relatively high solubility,0.1,–
"Cc1cc(C)c(Nc2ccc(Nc3c(C)cc(C)cc3C)c3c2C(=O)c2ccccc2C3=O)c(C)c1 [Dye No. 3-25, 1,4-Bis(mesidino)anthraquinone]",24.3,> 20,sufficient solubility,–,–,–,< 0.1,relatively high solubility,0.55,–
